Holding throughout (format): cell-based
One data set relates to OVCAR3. Description: MTT assay, ovary (OVCAR3). The procedure: (§1) Cells. HTB-9 (bladder), HeLa-S3 (cervix), DU145 (prostate), H460 (lung), MCF-7 (breast), K562 (leukemia), HCT116 (colon), HepG2 (liver), U2OS (bone), T98G (brain), SK-MEL-5 (Skin) and OVCAR 3, ES2 (ovary), Pancreas (Capan), Mouth (KB), Kidney (A498).
MTT Assay. The procedure for MTT assay followed the method described by Carmichael et al. (1987) with modifications. The cells were seeded into a 96-well plate at for 24 hours before drug-treatment. The cells were then exposed to the drugs for 48, 72, or 96 hours. After the drug-treatment, MTT (0.5 mg/mL) was added to cultures and incubated for an hour. The formazan (product of the reduction of tetrazolium by viable cells) formed and was dissolved with DMSO and the O.D. at 490 nm, and was measured by an ELISA reader. The MTT level of the cells before drug-treatment was also measured (T0). The % cell-growth (% G) is calculated as: % G=(TD−T0/TC−T0)×100(1), where TC or TD represents O.D. readings of control or drug-treated cells.
When T0>TD, then the cytotoxicity (LC) expressed as % of the control is calculated as: % LC=(TD−T0/T0)×100(2).
A general note: Tetrazolium dyes change colour on reduction, which living cells bring about.

Data set [1] concerns cancer growth, cancer invasion, cells invasion or cancer cell invasion. Briefly: Inhibition of cancer growth and invasion (anti-cancer activity). An excerpt: The program is based on the purification methods and biological assays including the MTT assay as described in International Application No. PCT/US05/31900, filed Sep. 7, 2005, U.S. Ser. No. 11/289,142, filed Nov. 28, 2005, and U.S. Ser. No. 11/131,551, filed May 17, 2005, and PCT/US2008/002086, 1188-ALA-PCT, filed Feb. 15, 2008, Ser. No. 12/344,682, 1020-B1-US, filed Dec. 29, 2008, US009499577B2, filed Jun. 24, 2014. The details of Analysis of gene expression of ES2 cells after Y-treatment by Microarray, Data Analysis Methods and Western blot in PCT/US2008/002086, 1188-ALA-PCT, filed Feb. 15, 2008, and the cell invasion experiments methods in International Application PCT/US2010/0042240, filed Jul. 16, 2010.

The subject of data set [2] is U2OS, H460, HTB-9, ES2, HCT116, Capan, OVCAR3, DU145, SK-Mel-5, KB, A498, MCF-7, HepG2, T98G, K562, HeLa. Briefly: MTT Cytotoxic Assay of reaction products and isolated compounds.
From the text: The peaks, fractions and compounds are selected according to the activities of times studies and the changes of peaks. Selecting the HPLC fractions for isolation is according to the cytotoxic activity of the reaction product obtained at a specific time. The compounds having strong to weak activities are selected and isolated. Selecting the HPLC fractions for isolation may be according to the cytotoxic activity of times studies and the change of peaks. The anti cancer activities are the MTT studies of bone (U2OS), lung (H460), bladder (HTB-9), ovary (ES2), colon (HCT116), pancreas (Capan), ovary (OVCAR3), prostate (DU145), skin (SK-Mel-5), mouth (KB), kidney (A498), breast (MCF-7), liver (HepG2), brain (T98G), luekemia (K562), cervix (HeLa).
Esterification, amidation, amination, or sulfonamidation of compound (A), (B), (C), (D1), (D2), (E), (F), (G), (H1), (H2), E4A, E4A2Y, E4D, E4D1, (P1), P(2), terpene, isoprene, triterpenes, hydroxylated triterpenes, with acyl halide, wherein the halide comprise chloride, bromide, fluoride and iodide, wherein the acyl halide comprise acyl chloride, wherein acyl chloride comprise tigloyl chloride, angeloyl chloride, acetyl chloride, crotonoyl chloride, 3,3-dimethylartyloyl chloride, senecioyl chloride, cinnamoyl chloride, pentenoyl chloride, hexanoyl chloride, benzoyl chloride, ethylbutyryl chloride, propionyl chloride, 2-propenoyl chloride, isobutyryl chloride, butyryl chloride, (2E)-2-pentenoyl chloride, 4-Pentenoyl chloride, 5-hexenoyl chloride, heptanoyl chloride, octanoyl chloride, nonanoyl chloride, decanoyl chloride, Lauroyl chloride, myristoyl chloride, oleoyl chloride. The compounds vary in composition when the time or temperature of the reaction is changed. The peaks, fractions and compounds are selected according to the activities of times studies and the changes of peaks. The compounds having strong to weak activities are selected and isolated. The anti cancer activities (Cytotoxic Assay) are the MTT studies of bone (U2OS), lung (H460), bladder (HTB-9), ovary (ES2), colon (HCT116), pancreas (Capan), ovary (OVCAR3), prostate (DU145), skin (SK-Mel-5), mouth (KB), kidney (A498), breast (MCF-7), liver (HepG2), brain (T98G), luekemia (K562), cervix (HeLa). The active esterification, amidation, amination, or sulfonamidation products are purified with HPLC. The reaction product of mixtures and individual compounds are tested with MTT Cytotoxic Assay. Details of method are in Experiment 3 of the present application. A second esterification of compound can be selected from the above experiment results to produce new active compounds. A partial esterification compound is selected from the above experiments to perform a second or repeated with a third esterification with different acyl chloride in order to produce new active compounds with the experiments in the present application. The active compounds of this invention are triterpenes in form of amine, sulfonamides, amide, and urea analogs, providing extremely stable activity in solution. They prolong the activities and duration of drug in a subject.
as §1
MTT Assay. The procedure for MTT assay followed the method described by Carmichael et al. (1987) with modifications. The cells were seeded into a 96-well plate at for 24 hours before drug-treatment. The cells were then exposed to the drugs for 48, 72, or 96 hours. After the drug-treatment, MTT (0.5 mg/mL) was added to cultures and incubated for an hour. The formazan (product of the reduction of tetrazolium by viable cells) formed and was dissolved with DMSO and the O.D. at 490 nm, and was measured by an ELISA reader. The MTT level of the cells before drug-treatment was also measured (T0). […]

23 compounds from patent US20230159436A1, “APPLICATIONS OF AMIDE ANALOGS OF TRITERPENES IN CURES OF CANCER AND OTHER DISEASES” (Pacific Arrow Limited, priority 2021, published 2023) can be followed below.

Structures are written as SMILES.

As for `CC=C(C)C(=O)OCC1(C)C(OC(=O)C(C)=CC)CCC2(C)C1CCC1(C)C2CC=C2C3CC(C)(C)C(OC(=O)C(C)=CC)C(O)C3(CO)C(O)CC21C` (stereo not drawn) [Tig-U], the “IC50 of ovary (OVCAR3)” value with OVCAR3 is on record as 27.
As for `CC=C(C)C(=O)OCC1(C)C(O)CCC2(C)C1CCC1(C)C2CC=C2C3CC(C)(C)C(OC(=O)C(C)=CC)C(O)C3(COC(=O)C(C)=CC)C(O)CC21C` (stereo not drawn) [Tig-V], in data set [1], the anti-cancer activity entry is recorded as “have anti cancer activities”. For the same compound, the “IC50 of ovary (OVCAR3)” value with OVCAR3 is on record as 9.
In the case of `CC1O[C@@H](O[C@H]2C(O)[C@@H](O)C(C)O[C@H]2O[C@H]2C(O)[C@@H](O)C(CO)O[C@H]2OC2[C@H](O)C(C(=O)O)O[C@@H](O[C@H]3CC[C@@]4(C)C(CC[C@]5(C)C4CC[C@]46O[C@H](O)[C@]7(C4CC(C)(C)[C@@H](O)[C@@H]7O)[C@H](O)C[C@]65C)C3(C)C)[C@H]2O[C@@H]2OC(CO)[C@H](O)C(O)[C@@H]2O)[C@@H](O)C(O)[C@H]1O` (stereo partly drawn) [AKOH-M10, reference compound], the “inhibiting cancer growth, cancer invasion, cells invasion or cancer cell invasion” value in data set [1] is listed as “do not show the ability”.
With `CC=C(C)C(=O)OCC1(C)C(O)CCC2(C)C1CCC1(C)C2CC=C2C3CC(C)(C)C(O)C(OC(=O)C(C)=CC)C3(COC(=O)C(C)=CC)C(O)CC21C` (stereo not drawn) [Tig-T], the anti-cancer activity result in data set [1] was “have anti cancer activities”. Besides, in the data set with OVCAR3, the “IC50 of ovary (OVCAR3)” value was 25.
Turning to `CC=C(C)C(=O)OCC1(C)C(O)CCC2(C)C1CCC1(C)C2CC=C2C3CC(C)(C)C(O)C(O)C3(CO)C(O)CC21C` (stereo not drawn) [Tig-N], in data set [1], the anti-cancer activity result was “have anti cancer activities”. The “IC50 of ovary (OVCAR3)” value in the data set on OVCAR3 came out at 18.
`CCC(=O)NCC1(C)C(N)CCC2(C)C1CCC1(C)C2CC=C2C3CC(C)(C)C(NC(=O)CC)C(N)C3(CNC(=O)CC)C(N)CC21C` (stereo not drawn) [LL4]: the Cytotoxicity activity result in data set [2] is on record as “weak”.
`CC=CC(=O)NCC1(C)C(N)CCC2(C)C1CCC1(C)C2CC=C2C3CC(C)(C)C(NC(=O)C=CC)C(N)C3(CN)C(N)CC21C` (stereo not drawn) [I I3]: the Cytotoxicity activity result in data set [2] is “moderate”.
Regarding `CC(C)C(=O)NCC1(C)C(O)CCC2(C)C1CCC1(C)C2CC=C2C3CC(C)(C)C(O)C(O)C3(CNC(=O)C(C)C)C(O)CC21C` (stereo not drawn) [NN2], in data set [2], the Cytotoxicity activity result is recorded as “strong”.
With `CCC(CC)C(=O)NCC1(C)C(O)CCC2(C)C1CCC1(C)C2CC=C2C3CC(C)(C)C(O)C(O)C3(CNC(=O)C(CC)CC)C(O)CC21C` (stereo not drawn) [EE2], the Cytotoxicity activity entry in data set [2] is recorded as “strong”.
Take `CC=CC(=O)NCC1(C)C(O)CCC2(C)C1CCC1(C)C2CC=C2C3CC(C)(C)C(O)C(O)C3(CNC(=O)C=CC)C(O)CC21C` (stereo not drawn) [I I2]: the Cytotoxicity activity result in data set [2] is listed as “strong”.
Regarding `CCC(=O)NCC1(C)C(O)CCC2(C)C1CCC1(C)C2CC=C2C3CC(C)(C)C(O)C(O)C3(CNC(=O)CC)C(O)CC21C` (stereo not drawn) [LL2], the Cytotoxicity activity entry in data set [2] is listed as “strong”.
On to `CCCCCC(=O)NCC1(C)C(N)CCC2(C)C1CCC1(C)C2CC=C2C3CC(C)(C)C(NC(=O)CCCCC)C(N)C3(CN)C(N)CC21C` (stereo not drawn) [DD3], for which the Cytotoxicity activity result in data set [2] is “moderate”.
In the case of `CC1(C)CC2C3=CCC4C5(C)CCC(N)C(C)(CNC(=O)C=Cc6ccccc6)C5CCC4(C)C3(C)CC(N)C2(CNC(=O)C=Cc2ccccc2)C(N)C1NC(=O)C=Cc1ccccc1` (stereo not drawn) [JJ4], the Cytotoxicity activity result in data set [2] was “weak”.
Take `CC1(C)CC2C3=CCC4C5(C)CCC(N)C(C)(CNC(=O)C=Cc6ccccc6)C5CCC4(C)C3(C)CC(N)C2(CNC(=O)C=Cc2ccccc2)C(N)C1N` (stereo not drawn) [JJ1]: in data set [2], the Cytotoxicity activity entry is “moderate”.
As for `CCC=CC(=O)NCC1(C)C(N)CCC2(C)C1CCC1(C)C2CC=C2C3CC(C)(C)C(N)C(N)C3(CNC(=O)C=CCC)C(N)CC21C` (stereo not drawn) [QQ1], in data set [2], the Cytotoxicity activity entry is listed as “moderate”.
As to `CCCC(=O)NCC1(C)C(N)CCC2(C)C1CCC1(C)C2CC=C2C3CC(C)(C)C(NC(=O)CCC)C(N)C3(CNC(=O)CCC)C(N)CC21C` (stereo not drawn) [PP4], the Cytotoxicity activity result in data set [2] is given as “weak”.
With `CC1(C)CC2C3=CCC4[C@@]5(C)CC[C@H](O[C@@H]6OC(C(=O)O)[C@@H](O)C(O[C@@H]7O[C@@H](CO)C(O)[C@@H]7O)[C@@H]6O[C@@H]6OC(CO)[C@H](O)C(O)[C@@H]6O)C(C)(C)C5CC[C@@]4(C)[C@]3(C)[C@@H](O)[C@@H](O)[C@@]2(CO)[C@@H](O)[C@@H]1O` (stereo partly drawn) [AKOH-Y, reference compound], the “inhibiting cancer growth, cancer invasion, cells invasion or cancer cell invasion” value in data set [1] was “do not show the ability”.
Take `C=CC(=O)NCC1(C)C(N)CCC2(C)C1CCC1(C)C2CC=C2C3CC(C)(C)C(N)C(N)C3(CNC(=O)C=C)C(N)CC21C` (stereo not drawn) [MM1]: the Cytotoxicity activity result in data set [2] is on record as “moderate”.
`CC=C(C)C(=O)OCC1(C)C(O)CCC2(C)C1CCC1(C)C2CC=C2C3CC(C)(C)C(O)C(OC(=O)C(C)=CC)C3(CO)C(O)CC21C` (stereo not drawn) [Tig-Q]: the anti-cancer activity entry in data set [1] is “have anti cancer activities”. For the same compound, in the data set with OVCAR3, the “IC50 of ovary (OVCAR3)” value was found to be 23.
On to `CC1(C)CC2C3=CCC4C5(C)CCC(N)C(C)(CNC(=O)c6ccccc6)C5CCC4(C)C3(C)CC(N)C2(CNC(=O)c2ccccc2)C(N)C1N` (stereo not drawn) [KK1], for which the Cytotoxicity activity entry in data set [2] is given as “moderate”.
With `CC(=O)NCC1(C)C(N)CCC2(C)C1CCC1(C)C2CC=C2C3CC(C)(C)C(NC(C)=O)C(N)C3(CN)C(N)CC21C` (stereo not drawn) [HH3], in data set [2], the Cytotoxicity activity entry is on record as “moderate”.
Same read-out and setting: under `CCC(CC)C(=O)NCC1(C)C(N)CCC2(C)C1CCC1(C)C2CC=C2C3CC(C)(C)C(NC(=O)C(CC)CC)C(N)C3(CN)C(N)CC21C` (stereo not drawn) [EE3] stands “moderate”.
Regarding `CCC(=O)NCC1(C)C(N)CCC2(C)C1CCC1(C)C2CC=C2C3CC(C)(C)C(N)C(N)C3(CNC(=O)CC)C(N)CC21C` (stereo not drawn) [LL1], the Cytotoxicity activity entry in data set [2] is on record as “moderate”.
